Patent US20140196172A1, “Organelle Targeting Nanocarriers” (Her Majesty the Queen in Right of Canada, as Repre sented …, priority 2011, published 2014)

System: mitochondria of triticale mesophyll protoplasts
Assay: Protoplast transformation with gfp reporter, confocal microscopy
Format: cell-based
Conditions: pWMaadA16GFP plasmid, 24 h
Procedure: The ten non-labelled oTPs listed in Tables 3 and 4 were tested for their capability to deliver biologically active DNA to chloroplasts or mitochondria using an oTP-GFP reporter construct transfection assay. oTPs are mixed with a double stranded (ds) DNA construct encoding Aequorea victoria green fluorescent protein (GFP) to form a complex. The plasmid-peptide nanocomplexes formed are incubated with triticale mesophyll protoplasts, microspores, or MDCK, Caco-2, F1112 or MG cells. Detection of a fluorescent signal by confocal microscopy and/or photometric cell imaging would indicate that the dsDNA had been transported into organelles and that transient expression of GFP had occurred. In addition, gene expression can be measured using quantitative real-time PCR to determine gfp mRNA abundance.
Wheat mitochondrial aadA16GFP reporter plasmid (pWMaadA16GFP, FIG. 11) is a 4587 base pair wheat specific mitochondrial transformation vector, which targets insertions into the fourth repeat region between the trnfM and rm18 gene cluster which is repeated three times in the Triticum aestivum mitochondrial genome. The insertion site is in the Triticum aestivum mitochondrial genome at nucleotides 300805-300878 and 300880-302834 (GenBank accession No. AP008982.1). A multiple cloning site is introduced following the tmfM target insertion sequence. […]

Question: How did the “Transfection of mitochondria (GFP fluorescence)” value turn out when MAAWMRSLFSPLKKLWIRMH (Zea mays) [mTP2] was run?
Answer: can mediate the transfection of mitochondria

Question: How did the “Transfection of mitochondria (GFP fluorescence)” value turn out when “MWWRRSRTNSLRYT (listed as Arabidopsis thaliana) [mTP4]” was run?
Answer: can mediate the transfection of mitochondria
